Source: US20230322761A1, “DEGRADATION OF BRUTON'S TYROSINE KINASE (BTK) BY CONJUGATION OF BTK INHIBITORS WITH E3 LIGASE LIGAND AND METHODS OF USE” (BEIGENE, LTD., priority 2020, published 2023)
Several values for one entry are separate records, joined by “and”; a condition that tells them apart may be missing. Equal entries are not always repeated.

Biological target: T1, BTK (Homo sapiens, UniProt Q06187)
T1 construct: endogenous in cells; host or cells: TMD-8 cells
Assay: BTK degradation in TMD-8 cells, HTRF assay after 6 h treatment
Assay type: cell-based
Conditions: IC50 (DC50) of BTK degradation
In short: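 Remaining BTK was quantified by HTRF in lysates of TMD-8 cells after 6 h exposure to an 8-point, 6-fold compound series (500× stocks in DMSO starting at 1 mM; 0.2% DMSO). Lysis 30 min, antibodies overnight at room temperature, ratio read at 665/620 nm; DC50 fitted with a four-parameter logistic equation.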

T1 sequence (Q06187 whole entry): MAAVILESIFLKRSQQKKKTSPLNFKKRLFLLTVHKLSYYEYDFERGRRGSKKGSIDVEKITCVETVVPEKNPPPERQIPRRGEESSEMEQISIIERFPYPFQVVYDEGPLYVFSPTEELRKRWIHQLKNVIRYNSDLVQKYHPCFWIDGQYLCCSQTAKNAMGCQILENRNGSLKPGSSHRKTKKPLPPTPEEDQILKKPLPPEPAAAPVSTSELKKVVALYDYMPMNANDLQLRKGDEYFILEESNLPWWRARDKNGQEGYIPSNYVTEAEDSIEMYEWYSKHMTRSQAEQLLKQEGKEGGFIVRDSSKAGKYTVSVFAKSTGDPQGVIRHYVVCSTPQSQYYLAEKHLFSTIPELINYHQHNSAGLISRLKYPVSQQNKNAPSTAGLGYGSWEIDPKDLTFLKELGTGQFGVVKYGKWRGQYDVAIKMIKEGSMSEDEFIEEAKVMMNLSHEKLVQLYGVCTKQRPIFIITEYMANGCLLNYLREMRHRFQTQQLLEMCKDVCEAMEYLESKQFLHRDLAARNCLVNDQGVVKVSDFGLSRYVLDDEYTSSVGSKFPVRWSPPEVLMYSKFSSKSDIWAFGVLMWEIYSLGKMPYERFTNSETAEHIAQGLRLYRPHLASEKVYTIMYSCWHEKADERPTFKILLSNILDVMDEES

DC50	Compound
22.8 nM	Cc1cc(-c2n[nH]c3ncc(-c4ccc(N5CCN(CC6CCN(c7ccc(N8CCC(=O)NC8=O)cc7)CC6)CC5)cc4)cc23)ccc1CNC(=O)c1noc(C2(C(F)(F)F)CC2)n1 [Example 42, N-(4-(5-(4-(4-((1-(4-(2,4-dioxotetrahydropyrimidin-1(2H)-yl)phenyl)piperidin-4-yl)methyl)piperazin-1-yl)phenyl)-1H-pyrazolo[3,4-b]pyridin-3-yl)-2-methylbenzyl)-5-(1-(trifluoromethyl)cyclopropyl)-1,2,4-oxadiazole-3-carboxamide]
3.44 nM	Cc1c([C@@H](C)NC(=O)c2noc(C(C)(C)C)n2)ccc(-c2n[nH]c3ncc(-c4ccc(N5CCN(CC6CCN(c7ccc(N8CCC(=O)NC8=O)cc7)CC6)CC5)cc4)cc23)c1F [Example 43, (R)-5-(tert-butyl)-N-(1-(4-(5-(4-(4-((1-(4-(2,4-dioxotetrahydropyrimidin-1(2H)-yl)phenyl)piperidin-4-yl)methyl)piperazin-1-yl)phenyl)-1H-pyrazolo[3,4-b]pyridin-3-yl)-3-fluoro-2-methylphenyl)ethyl)-1,2,4-oxadiazole-3-carboxamide]
6.02 nM	Cc1cc(-c2n[nH]c3ncc(-c4ccc(N5CCN(CC6CCN(c7ccc(N8CCC(=O)NC8=O)cc7)CC6)CC5)cc4)cc23)c(F)cc1[C@@H](C)NC(=O)c1noc(C(C)(C)C)n1 [Example 44, (R)-5-(tert-butyl)-N-(1-(4-(5-(4-(4-((1-(4-(2,4-dioxotetrahydropyrimidin-1(2H)-yl)phenyl)piperidin-4-yl)methyl)piperazin-1-yl)phenyl)-1H-pyrazolo[3,4-b]pyridin-3-yl)-5-fluoro-2-methylphenyl)ethyl)-1,2,4-oxadiazole-3-carboxamide]
2.15 nM	Cc1c([C@@H](C)NC(=O)c2nc(C(C)(C)C)no2)ccc(-c2n[nH]c3ncc(-c4ccc(N5CCN(CC6CCN(c7ccc(N8CCC(=O)NC8=O)cc7)CC6)CC5)cc4)cc23)c1F [Example 45, (R)-3-(tert-butyl)-N-(1-(4-(5-(4-(4-((1-(4-(2,4-dioxotetrahydropyrimidin-1(2H)-yl)phenyl)piperidin-4-yl)methyl)piperazin-1-yl)phenyl)-1H-pyrazolo[3,4-b]pyridin-3-yl)-3-fluoro-2-methylphenyl)ethyl)-1,2,4-oxadiazole-5-carboxamide]
5.13 nM	Cc1cc(-c2n[nH]c3ncc(-c4ccc(N5CCN(CC6CCN(c7ccc(N8CCC(=O)NC8=O)cc7)CC6)CC5)cc4)cc23)c(F)cc1[C@@H](C)NC(=O)c1nc(C(C)(C)C)no1 [Example 46, (R)-3-(tert-butyl)-N-(1-(4-(5-(4-(4-((1-(4-(2,4-dioxotetrahydropyrimidin-1(2H)-yl)phenyl)piperidin-4-yl)methyl)piperazin-1-yl)phenyl)-1H-pyrazolo[3,4-b]pyridin-3-yl)-5-fluoro-2-methylphenyl)ethyl)-1,2,4-oxadiazole-5-carboxamide]
4.76 nM	Cc1cc(-c2n[nH]c3ncc(-c4ccc(N5CCN(CCC6CCN(c7ccc(C8CCC(=O)NC8=O)c(F)c7)CC6)CC5)cc4)cc23)ccc1CNC(=O)c1noc(C(C)(C)C)n1 (stereo not drawn) [Example 48, 5-(tert-butyl)-N-(4-(5-(4-(4-(2-(1-(4-(2,6-dioxopiperidin-3-yl)-3-fluorophenyl)piperidin-4-yl)ethyl)piperazin-1-yl)phenyl)-1H-pyrazolo[3,4-b]pyridin-3-yl)-2-methylbenzyl)-1,2,4-oxadiazole-3-carboxamide]
4.65 nM	COc1cc(N2CCC(CN3CCN(c4ccc(-c5cnc6[nH]nc(-c7ccc(CNC(=O)c8noc(C(C)(C)C)n8)c(C)c7)c6c5)cc4)CC3)CC2)ccc1N1CCC(=O)NC1=O [Example 50, 5-(tert-butyl)-N-(4-(5-(4-(4-((1-(4-(2,4-dioxotetrahydropyrimidin-1(2H)-yl)-3-methoxyphenyl)piperidin-4-yl)methyl)piperazin-1-yl)phenyl)-1H-pyrazolo[3,4-b]pyridin-3-yl)-2-methylbenzyl)-1,2,4-oxadiazole-3-carboxamide]
3.83 nM	Cc1cc(-c2n[nH]c3ncc(-c4ccc(N5CCN(CCc6ccc(C7CCC(=O)NC7=O)c(Cl)c6)CC5)cc4)cc23)ccc1CNC(=O)c1noc(C(C)(C)C)n1 (stereo not drawn) [Example 51, 5-(tert-butyl)-N-(4-(5-(4-(4-(3-chloro-4-(2,6-dioxopiperidin-3-yl)phenethyl)piperazin-1-yl)phenyl)-1H-pyrazolo[3,4-b]pyridin-3-yl)-2-methylbenzyl)-1,2,4-oxadiazole-3-carboxamide]
4.22 nM	Cc1cc(-c2n[nH]c3ncc(-c4ccc(C5CCN(CC6CCN(c7ccc(N8CCC(=O)NC8=O)cc7)CC6)CC5)nc4)cc23)ccc1CNC(=O)c1noc(C(C)(C)C)n1 [Example 63, 5-(tert-butyl)-N-(4-(5-(6-(1-((1-(4-(2,4-dioxotetrahydropyrimidin-1(2H)-yl)phenyl)piperidin-4-yl)methyl)piperidin-4-yl)pyridin-3-yl)-1H-pyrazolo[3,4-b]pyridin-3-yl)-2-methylbenzyl)-1,2,4-oxadiazole-3-carboxamide]
7.67 nM	Cc1cc(-c2n[nH]c3ncc(-c4ccc(N5CCN(CC6CCN(c7ccc(N8CCC(=O)NC8=O)cc7)CC6)CC5)nc4)cc23)ccc1CNC(=O)c1noc(C(C)(C)C)n1 [Example 65, 5-(tert-butyl)-N-(4-(5-(6-(4-((1-(4-(2,4-dioxotetrahydropyrimidin-1(2H)-yl)phenyl)piperidin-4-yl)methyl)piperazin-1-yl)pyridin-3-yl)-1H-pyrazolo[3,4-b]pyridin-3-yl)-2-methylbenzyl)-1,2,4-oxadiazole-3-carboxamide]
5.32 nM	Cc1cc(-c2n[nH]c3ncc(-c4ccc(N5CCN(CC6CCN(c7ccc(N8CCC(=O)NC8=O)cc7)CC6)CC5)cn4)cc23)ccc1CNC(=O)c1noc(C(C)(C)C)n1 [Example 66, 5-(tert-butyl)-N-(4-(5-(5-(4-((1-(4-(2,4-dioxotetrahydropyrimidin-1(2H)-yl)phenyl)piperidin-4-yl)methyl)piperazin-1-yl)pyridin-2-yl)-1H-pyrazolo[3,4-b]pyridin-3-yl)-2-methylbenzyl)-1,2,4-oxadiazole-3-carboxamide]
1.47 nM	Cc1cc(-c2n[nH]c3ncc(-c4ccc(N5CCN(CC6CCN(c7ccc(N8CCC(=O)NC8=O)cc7)CC6)CC5)nc4)cc23)ccc1CNC(=O)c1nc(C(C)(C)C)no1 [Example 68, 3-(tert-butyl)-N-(4-(5-(6-(4-((1-(4-(2,4-dioxotetrahydropyrimidin-1(2H)-yl)phenyl)piperidin-4-yl)methyl)piperazin-1-yl)pyridin-3-yl)-1H-pyrazolo[3,4-b]pyridin-3-yl)-2-methylbenzyl)-1,2,4-oxadiazole-5-carboxamide]
2.5 nM and 2.37 nM	Cc1cc(-c2n[nH]c3ncc(-c4ccc(N5CCN(CC6CCN(c7ccc(N8CCC(=O)NC8=O)c(C)c7)CC6)CC5)nc4)cc23)ccc1CNC(=O)c1noc(C(C)(C)C)n1 [Example 69, 5-(tert-butyl)-N-(4-(5-(6-(4-((1-(4-(2,4-dioxotetrahydropyrimidin-1(2H)-yl)-3-methylphenyl)piperidin-4-yl)methyl)piperazin-1-yl)pyridin-3-yl)-1H-pyrazolo[3,4-b]pyridin-3-yl)-2-methylbenzyl)-1,2,4-oxadiazole-3-carboxamide]
4.03 nM	Cc1cc(-c2n[nH]c3ncc(-c4ccc(C5CCN(CC6CCN(c7ccc(N8CCC(=O)NC8=O)cc7)CC6)CC5)nc4)cc23)ccc1[C@@H](C)NC(=O)c1noc(C(C)(C)C)n1 [Example 71, (R)-5-(tert-butyl)-N-(1-(4-(5-(6-(1-((1-(4-(2,4-dioxotetrahydropyrimidin-1(2H)-yl)phenyl)piperidin-4-yl)methyl)piperidin-4-yl)pyridin-3-yl)-1H-pyrazolo[3,4-b]pyridin-3-yl)-2-methylphenyl)ethyl)-1,2,4-oxadiazole-3-carboxamide]
1.21 nM	Cc1cc(-c2n[nH]c3ncc(-c4ccc(C5CCN(CC6CCN(c7ccc(N8CCC(=O)NC8=O)cc7)CC6)CC5)cn4)cc23)ccc1[C@@H](C)NC(=O)c1noc(C(C)(C)C)n1 [Example 72, (R)-5-(tert-butyl)-N-(1-(4-(5-(5-(1-((1-(4-(2,4-dioxotetrahydropyrimidin-1(2H)-yl)phenyl)piperidin-4-yl)methyl)piperidin-4-yl)pyridin-2-yl)-1H-pyrazolo[3,4-b]pyridin-3-yl)-2-methylphenyl)ethyl)-1,2,4-oxadiazole-3-carboxamide]
1.75 nM	Cc1cc(-c2n[nH]c3ncc(-c4ccc(N5CCN(CC6CCN(c7ccc(N8CCC(=O)NC8=O)c(C)c7)CC6)CC5)cn4)cc23)ccc1[C@@H](C)NC(=O)c1noc(C(C)(C)C)n1 [Example 78, (R)-5-(tert-butyl)-N-(1-(4-(5-(5-(4-((1-(4-(2,4-dioxotetrahydropyrimidin-1(2H)-yl)-3-methylphenyl)piperidin-4-yl)methyl)piperazin-1-yl)pyridin-2-yl)-1H-pyrazolo[3,4-b]pyridin-3-yl)-2-methylphenyl)ethyl)-1,2,4-oxadiazole-3-carboxamide]
3.95 nM	Cc1cc(-c2n[nH]c3ncc(-c4ccc(N5CCN(CCCOc6ccc(C7CCC(=O)NC7=O)c(F)c6)CC5)cc4)cc23)ccc1[C@@H](C)NC(=O)c1noc(C(C)(C)C)n1 (stereo partly drawn) [Example 86, 5-(tert-butyl)-N-((1R)-1-(4-(5-(4-(4-(3-(4-(2,6-dioxopiperidin-3-yl)-3-fluorophenoxy)propyl)piperazin-1-yl)phenyl)-1H-pyrazolo[3,4-b]pyridin-3-yl)-2-methylphenyl)ethyl)-1,2,4-oxadiazole-3-carboxamide]
7.21 nM	Cc1cc(CCN2CCN(c3ccc(-c4cnc5[nH]nc(-c6ccc([C@@H](C)NC(=O)c7nc(C(C)(C)C)no7)c(C)c6)c5c4)cc3)CC2)ccc1C1CCC(=O)NC1=O (stereo partly drawn) [Example 87, 3-(tert-butyl)-N-((1R)-1-(4-(5-(4-(4-(4-(2,6-dioxopiperidin-3-yl)-3-methylphenethyl)piperazin-1-yl)phenyl)-1H-pyrazolo[3,4-b]pyridin-3-yl)-2-methylphenyl)ethyl)-1,2,4-oxadiazole-5-carboxamide]
